For test [1], the target named is DAT (Rattus norvegicus (Rat), UniProt P23977). As to the kind of experiment: [3H]Dopamine uptake inhibition in rat brain synaptosomes. The format is biochemical. The following applies: DA. The procedure:
Materials used were: Neurotransmitters [3H]5-HT (PerkinElmer, NET498001MC) [^3H]Dopamine (PerkinElmer, NET673250UC) [^3H]Norepinephrine (PerkinElmer, NET377250UC); Test Compounds Racemic methylone HCl (Merck, M-140); (R)-methylone HCl (Pisgah Labs); (S)-methylone HCl (Pisgah Labs); Reference Compounds Citalopram (Tocris Bioscience 1427). JHW007 (Tocris Bioscience 4351). Nomifensine (Abcam ab146004).
Synaptosomes were prepared from Sprague Dawley (200-250 g) rat brain regions (hippocampus for NE, striatum for DA and midbrain for 5-HT) using standard protocols. Tissues were dissected, added to sucrose buffer (0.32 M), homogenized with a dounce-homogenizer and centrifuged at 100×g to remove cells and debris. Supernatant was collected and centrifuged 17,000×g for 10 minutes at 4° C. to pellet the synaptosomes. The pellet was resuspended in fresh assay buffer.
Uptake assays were carried out in 96-well plates in a final volume of 250 μL per well. To each well was added 150 μL synaptosomes, 50 μL test, non-specific compound or buffer alone. The plate was incubated at 30° C. for 30 minutes with gentle agitation. 50 μL radiolabeled neurotransmitter in buffer was then added to each well to initiate the uptake. The plate was incubated at 30° C. for a further 5 minutes with gentle agitation. The incubation was stopped by vacuum filtration onto presoaked GF/C filters using a 96-well FilterMate™ harvester, followed by 3 washes with ice-cold wash buffer. Filters were then dried under a warm air stream, sealed in polyethylene, scintillation cocktail added, and the radioactivity counted in a Wallac® TriLux 1450 MicroBeta counter.
For each concentration of drug, non-specific uptake was subtracted from total uptake to give specific uptake. Data was fitted using the non-linear curve fitting routines in Prism® (Graphpad Software Inc) to determine IC50.

For test [2], the target named is SERT (Rattus norvegicus (Rat), UniProt P31652). Description: 5-HT release study. The class given is biochemical.

The values below come from US20240327372A1, “PREPARATION OF PHENE[…] […] STEREOISOMERS THEREOF AND PRECURSORS THEREOF” (priority 2022, published 2024).

Consider `CN[C@H](C)C(=O)c1ccc2c(c1)OCO2` [(R)-methylone], for which, in test [1], it took 3440 nM to reach half-maximal inhibition (IC50).

For `CN[C@@H](C)C(=O)c1ccc2c(c1)OCO2` [(S)-methylone], in test [1], the half-maximal inhibitory concentration (IC50) (in general, the concentration that gives 50% inhibition) was 634 nM. A half-maximal response in test [2] (EC50) required 1180 nM.
